Measured values reported in patent US4179467A, “Dopamine hydroxylase inhibiting 2-amino-cyclopent-1-ene-1-thiocarboxylic acid-disulfides” (Richter Gedeon Vegyeszeti Gyar Rt., priority 1976, dated 1979).
Where two headings read alike, the source gives them in different places.

Columns and labels:
dopamine-β-hydroxylase [1] = assay: Noradrenaline level of spleen in rats, % of controls; assay type: in vivo, male Wistar rats; settings: rat, i.p., 4 hours
Procedure: (§1) The dopamine-β-hydroxylase inhibiting effects of the new compounds according to the invention were examined by the following tests:
The tests were performed on male Wistar rats weighing 150 to 200 g. The dopamine-β-hydroxylase inhibiting effects of the compounds were evaluated by determining the change of noradrenaline, dopamine and adrenaline levels of the cerebrum, heart, spleen and adrenal gland. The serotonine and 5-hydroxy-indolylacetic acid levels of the cerebrum were also determined. The measurements were performed as follows: […]
The organs were weighed in the frozen state and then homogenized in 5.0 ml of 0.4 N perchloric acid containing 0.05% of EDTA-Naa and 0.1% of Na2 S2 O5. […] Noradrenaline was determined according to the method of Shellenberger et al. (Anal. Biochem. 39, 356 (1971)), with the following modifications of the basic procedure: 0.5 ml of 0.1 molar Na-K-phosphate buffer, containing 9 g/l of EDTA-Na2, were added to 0.5 ml of the eluate, and the catecholamines (noradrenaline in the examination of heart and spleen and noradrenaline and dopamine in the examination of the cerebrum) were oxidized with 0.1 ml of a 0.1 N iodine solution in 5% potassium iodide. […] The fluorescency of noradrenaline was measured with an OPTON spectrophotometer at wavelengths of 380 nm (excitation) and 490 nm (emission). […]

dopamine-β-hydroxylase [2] = assay: Noradrenaline level of heart in rats, % of controls; assay type: in vivo, male Wistar rats; settings: rat, 4 hours
Procedure: as §1
(§2) The tests were performed on male Wistar rats weighing 150 to 200 g. The dopamine-β-hydroxylase inhibiting effects of the compounds were evaluated by determining the change of noradrenaline, dopamine and adrenaline levels of the cerebrum, heart, spleen and adrenal gland. The serotonine and 5-hydroxy-indolylacetic acid levels of the cerebrum were also determined. The measurements were performed as follows:
(§3) The animals were decapitated, the cerebrum, heart, spleen and adrenal gland were removed quickly, and the organs were frozen by placing them on a metal sheet cooled with dry ice. The frozen organs were stored for a maximum of one night at -20° C.
(§4) The organs were weighed in the frozen state and then homogenized in 5.0 ml of 0.4 N perchloric acid containing 0.05% of EDTA-Naa and 0.1% of Na2 S2 O5. The homogenized mixtures were centrifuged as described above for the treatment of adrenal gland, the supernatants were decanted, and the pH was adjusted to 8.0±0.1 with a 0.1 molar tris buffer containing 20 g/l of NaOH and 25 g/l of EDTA-Na2. 100 mg of prepared Al2 O3 (Anton et al.: J. Pharm. Ther. 138, 360 (1962)) were added to the samples, and the mixtures were shaken mechanically for 20 minutes. Thereafter the Al2 O3 was washed with 2×10 ml of distilled water, and noradrenaline was eluted with 1.0 ml of 0.05 N perchloric acid. 0.5 ml samples of the eluate were used for the determination of noradrenaline. Noradrenaline was determined according to the method of Shellenberger et al. (Anal. Biochem. 39, 356 (1971)), with the following modifications of the basic procedure: 0.5 ml of 0.1 molar Na-K-phosphate buffer, containing 9 g/l of EDTA-Na2, were added to 0.5 ml of the eluate, and the catecholamines (noradrenaline in the examination of heart and spleen and noradrenaline and dopamine in the examination of the cerebrum) were oxidized with 0.1 ml of a 0.1 N iodine solution in 5% potassium iodide. After exactly 2 minutes, oxidation was stopped by adding 0.25 ml of a 2.5% sodium sulfite solution in 4.4 N aqueous sodium hydroxide to the mixture. 2 minutes after the introduction of the alkaline sulfite solution, 0.2 ml of concentrated acetic acid was added to the samples, whereupon the pH decreased to 4.4 to 4.5. Thereafter the samples were placed for 5 minutes in a drying oven heated to 100° C., and then the samples were cooled with ice water. The fluorescency of noradrenaline was measured with an OPTON spectrophotometer at wavelengths of 380 nm (excitation) and 490 nm (emission).
(§5) In the tests disulfiram, 2,2-dipyridyl, bis(1-methyl-4-homopiperazinyl-thiocarbonyl)-disulfide, sodium diethyldithiocarbamate and N-phenyl-N'-(2-thiazolyl)-thiourea were used as reference substances. The values indicated in Table 1 are the percentages in relation to the amine levels of the controls measured in the same tests (±standard error). The statistical calculations were performed on a TPA/i type computer, using Student's t test.

[3] = tested on: serotonine and 5-hydroxy-indolylacetic acid levels of the cerebrum; assay: Serotonine and 5-hydroxy-indolylacetic acid levels of the cerebrum (brain) in rats, % of controls; assay type: in vivo, male Wistar rats; settings: for response vs control in vivo at 500 mg/kg: po, p.o.
Procedure: as §2, §3
In a further test series the serotonine and 5-hydroxy-indolylacetic acid contents were also determined, in addition to the determination of the noradrenaline and dopamine content, from the same sample. In this instance the brains were homogenized in 10 ml of 75% ethanol, 0.2 ml of EDTA-Na2 and 5% of ascorbic acid were added to the homogenized mixtures, and the homogenized mixtures were maintained at -20° C. overnight. The mixtures were centrifuged as described above, and 5.0 ml samples of the supernatant were removed. The samples were diluted with equal volumes of distilled water, and poured onto ion exchange columns of 0.5×1.5 cm dimensions, filled with buffered Amberlite CG-30 (200 to 400 mesh). The columns were washed with 5 ml of distilled water followed by 1.0 ml of 0.2 N hydrochloric acid, and the first effluent and the aqueous wash were collected for the determination of 5-hydroxy-indolylacetic acid. Elution was continued with a further 1.2 ml quantity of 0.2 N hydrochloric acid in order to remove noradrenaline, dopamine and serotonine. Samples of 0.3 ml were used for the determinations.
Noradrenaline and dopamine were determined by the method of Shellenberger, modified as described above, whereas serotonine was determined by the method of Curzon et al. (Brit. J. Pharmacol. 39, 653 (1970)). The basic method was modified as follows: A 0.5% solution of ortho-phthal(di)aldehyde in absolute ethanol was diluted with […] hydrochloric acid to 50-fold of its original volume, and 0.6 ml of the resulting 0.01% ortho-phthal(di)aldehyde solution were added immediately to 0.5 ml of the serotonine-containing sample. The sample was placed in a hot water bath for 10 minutes, thereafter cooled with tap water, and the flourescence was recorded at wavelengths of 360 nm (excitation) and 490 nm (emission).
5-Hydroxy-indolylacetic acid was determined from the mixture of the first effluent and the aqueous wash. 10 ml of distilled water and 0.2 ml of concentrated hydrochloric acid were added to the mixture, and the sample was poured onto a 0.8×4.0 cm column filled with Sephadex G-10. The column was washed with 15 ml of 0.1 N hydrochloric acid followed by 1.8 to 2.0 ml of 0.02 N aqueous ammonia, and then 5-hydroxy-indolylacetic acid was eluted with further 2.0 ml of the aqueous ammonia. 0.5 ml samples were used in the measurements, and the determination was performed according to the method of Korf et al. (Biochem. Pharmacol. 20, 659 (1971)).
as §5

dopamine-β-hydroxylase [4] = assay: Adrenaline level of adrenal gland in rats, % of controls; assay type: in vivo, male Wistar rats; settings: rat, i.p., 4 hours
Procedure: as §1, §2, §3
The adrenal glands were freed from fat and homogenized in 3.0 ml of ice-cold 0.4 N perchloric acid. The homogenized mixtures were centrifuged for 10 minutes at 0° C. with a speed of 3200 r.p.m. using a Janetzky K-70 type centrifuge. 0.05 ml samples were taken from the supernatant, and the adrenaline level was determined directly by the method of Laverty et al. (Anal. Biochem. 22, 269 (1968)).
as §5

dopamine-β-hydroxylase [5] = assay: Noradrenaline and dopamine levels of the cerebrum (brain) in rats, % of controls; assay type: in vivo, male Wistar rats; settings: rat, i.p., 4 hours
Procedure: as §1, §2, §3, §4
The brains were homogenized in 10 parts by volume of 0.4 N perchloric acid. The homogenized mixture was stored at -20° C. overnight; thereafter it was thawed and centrifuged as described above. A sample of the homogenized mixture corresponding to 0.5 g of brain was removed, the pH of the sample was adjusted to 8.0±0.1 with 0.1 molar tris-buffer of the above composition, and the sample was processed as described above for the determination of the noradrenaline content of heart and spleen, with the difference that 1.5 ml of 0.05 N perchloric acid was used as the eluting agent. 0.5 ml of the eluate was used to determine the noradrenaline and dopamine contents. The measurement was performed as described above, with the difference that samples of 0.5 ml were applied for the recording of the flourescence of noradrenaline. The residue was placed for 50 minutes into a drying oven heated to 100° C., thereafter the sample was cooled with ice water, and the fluorescence of dopamine was recorded at wavelengths of 325 nm (excitation) and 380 nm (emission).
In a further test series the serotonine and 5-hydroxy-indolylacetic acid contents were also determined, in addition to the determination of the noradrenaline and dopamine content, from the same sample. […]

in vivo = settings: mouse, in vivo, mice
dopamine-β-hydroxylase [6] = settings: in vitro conditions, literature; cited from earlier work

c1ccc(-c2ccccn2)nc1 [2,2-D, 2,2-dipyridyl]
Spleen NA level (percentages in relation to the controls) (dopamine-β-hydroxylase [1]; 37.5 mg/kg): 100% | Heart NA level (percentages in relation to the controls) (dopamine-β-hydroxylase [2]; i.p., 37.5 mg/kg): 104% | Heart NA level (percentages in relation to the controls) (dopamine-β-hydroxylase [2]; i.p., 75 mg/kg): 58% | response vs control in vivo at 75 mg/kg ([3]; Rattus norvegicus, ip, 4 h, read-out: Brain SE level (percentages in relation to the controls)): 100% | Adrenal gland adrenaline level (% of controls) (dopamine-β-hydroxylase [4]; 37.5 mg/kg): 80% | Adrenal gland adrenaline level (% of controls) (dopamine-β-hydroxylase [4]; 75 mg/kg): 63% | Brain DA level (percentages in relation to the controls) (dopamine-β-hydroxylase [5]; 37.5 mg/kg): 116% | Brain NA level (percentages in relation to the controls) (dopamine-β-hydroxylase [5]; 37.5 mg/kg): 79.5% | Brain DA level (percentages in relation to the controls) (dopamine-β-hydroxylase [5]; 75 mg/kg): 95% | Brain NA level (percentages in relation to the controls) (dopamine-β-hydroxylase [5]; 75 mg/kg): 41.2% | LD50 (in vivo; ip): 280 mg/kg | dopamine-β-hydroxylase inhibition in vitro, in words (dopamine-β-hydroxylase [6]): effective under in vitro conditions

S=C(Nc1ccccc1)Nc1nccs1 [U-14624, N-phenyl-N'-(2-thiazolyl)-thiourea]
Spleen NA level (percentages in relation to the controls) (dopamine-β-hydroxylase [1]; 200 mg/kg): 111% | Heart NA level (percentages in relation to the controls) (dopamine-β-hydroxylase [2]; i.p., 200 mg/kg): 106% | Brain 5-HIAA level (percentages in relation to the controls) ([3]; rat, i.p., 200 mg/kg, 4 hours): 175% | Brain SE level (percentages in relation to the controls) ([3]; rat, i.p., 200 mg/kg, 4 hours): 137% | Adrenal gland adrenaline level (% of controls) (dopamine-β-hydroxylase [4]; 200 mg/kg): 72% | Brain DA level (percentages in relation to the controls) (dopamine-β-hydroxylase [5]; 200 mg/kg): 121% | Brain NA level (percentages in relation to the controls) (dopamine-β-hydroxylase [5]; 200 mg/kg): 31.6% | LD50 (in vivo; ip): ~680 mg/kg | LD50 (in vivo; po): > 1000 mg/kg

COCCNC1=C(C(=S)SSC(=S)C2=C(NCCOC)CCC2)CCC1 [M-4, 2-(N-methoxyethyl)-amino-cyclopent-1-ene-thiocarboxylic acid disulfide]
Heart NA level (percentages in relation to the controls) (dopamine-β-hydroxylase [2]; p.o., 500 mg/kg): 86.4 ± 10.1% | response vs control in vivo at 100 mg/kg ([3]; ip, rat, i.p., 4 hours, read-out: Brain 5-HIAA level (percentages in relation to the controls)): 108 ± 9.6% | response vs control in vivo at 100 mg/kg ([3]; ip, rat, i.p., 4 hours, read-out: Brain SE level (percentages in relation to the controls)): 113 ± 2.8% | response vs control in vivo at 200 mg/kg ([3]; ip, rat, i.p., 200 mg/kg, 4 hours, read-out: Brain 5-HIAA level (percentages in relation to the controls)): 151% | response vs control in vivo at 200 mg/kg ([3]; ip, rat, i.p., 200 mg/kg, 4 hours, read-out: Brain SE level (percentages in relation to the controls)): 113 ± 5.6% | response vs control in vivo at 200 mg/kg ([3]; ip, rat, i.p., 200 mg/kg, 8 hours, read-out: Brain 5-HIAA level (percentages in relation to the controls)): 161% | response vs control in vivo at 200 mg/kg ([3]; ip, rat, i.p., 200 mg/kg, 8 hours, read-out: Brain SE level (percentages in relation to the controls)): 106 ± 7.5% | response vs control in vivo at 500 mg/kg ([3]; rat, 4 hours, read-out: Brain 5-HIAA level (percentages in relation to the controls)): 95.4 ± 6% | response vs control in vivo at 500 mg/kg ([3]; rat, 4 hours, read-out: Brain SE level (percentages in relation to the controls)): 103 ± 5.3% | response vs control in vivo at 500 mg/kg ([3]; rat, 8 hours, read-out: Brain 5-HIAA level (percentages in relation to the controls)): 106 ± 4.9% | response vs control in vivo at 500 mg/kg ([3]; rat, 8 hours, read-out: Brain SE level (percentages in relation to the controls)): 90.9 ± 6.7% | LD50 (in vivo; ip): > 1500 mg/kg
